# Assays:
# PEER = assay: Cell proliferation assay, PEER (ALL); format: cell-based; conditions: 48 hours
# Protocol: (§1) Cell proliferation was analyzed after 48 hours of in vitro treatment using the CellTiter 96 Aqueous One Solution Cell Proliferation Assay (Promega, Madison, Wis.). This is a colorimetric method for determining the number of viable cells in proliferation.
# (§2) For the assay, suspension cells were cultured by triplicate at a density of 1×10^6 cells/ml in 96-well plates (100.000 cells/well, 100 μl/well), except for OCILY-3 and OCILY-10 cell lines which were cultured at a density of 0.5×10^6 cells/ml (50.000 cells/well, 100 μl/well) and for HepG2, Hep3B and PLC/PRF/5 cell ines which were cultured at a density of 3000 cells/well, 100 μl/well). Adherent cells were obtained from 80-90% confluent flasks and 100 μl of cells were seeded at a density of 5000 cells/well in 96-well plates by triplicate. Before addition of the compounds, adherent cells were allowed to attach to the bottom of the wells for 12 hours. […]
# (§3) After 48 hours of treatment, plates with suspension cells were centrifuged at 800 g for 10 minutes and medium was removed. […] After 1-3 hours of incubation at 37° C., absorbance was measured at 490 nm in a 96-well plate reader. The background absorbance was measured in wells with only cell line medium and solution reagent. Data was calculated as a percentage of total absorbance of treated cell/absorbance of non treated cells. […]
# [1] = system: human B-ALL mice model with CEMO-1 cell line; assay: In vivo therapeutic activity in the preclinical human B-ALL mice model with CEMO-1 cell line; set-up: species or system BALB/cA-Rag2−/−γc−/− mice
# Protocol: To examine the in vivo activity, a preclinical model of human B-ALL with RAG2 mouse was used. Six to eight-week old female BALB/cA-Rag2^−/−γc^−/− mice were purchased from The Netherlands Cancer Institute and maintained in pathogen-free isolation cages. RAG2 mice were injected intravenously (i.v.) with 10×10^6 CEMO-1 cells via tail vein to generate the human B-ALL mice model. Animals in groups of six were treated starting at day three after cells inoculation. The first group served as control and received placebo (saline) daily for 28 consecutive days, via i.v. injection.
# The second group was treated with 3-04 (2.5 mg/kg) daily for 28 consecutive days via i.v. Animals were monitored weekly for weight loss and signs of tumour burden by flow cytometry of human cells. The median survival for 3-04 treated mice (N=6) was 91 days (SD: ±5.72) compared to 57 days (SD: ±10.52) for control mice (N=6) after cells inoculation.
# KMS28BM = assay: Cell proliferation assay, KMS28BM (MM); format: cell-based; conditions: KMS-28BM, 48 hours
# Protocol: as §1, §2, §3
# SU-DHL-7 = assay: Cell proliferation assay, SU-DHL-7 (GC-DLBCL); format: cell-based; conditions: 48 hours
# Protocol: as §1, §2, §3
compound,measurement,setting,value
"COc1cc2c(NC3CCN(C)CC3)cc(-c3ccc(C)o3)nc2cc1OCCCN1CCCC1.O=C(O)C(F)(F)F [Compound 3-04, 6-methoxy-2-(5-methyl-2-furyl)-N-(1-methyl-4-piperidyl)-7-(3-pyrrolidin-1-ylpropoxy)quinolin-4-amine; 2,2,2-trifluoroacetic acid]",GI50,PEER,0.1 to 1 µM
same,median survival,"[1]; 2.5 mg/kg daily for 28 consecutive days i.v., after cells inoculation, control 57 days",91 days
same,"survival compared with the control (Kaplan-Meier, log-rank test)","[1]; 2.5 mg/kg daily for 28 days i.v., P=0.0009",significantly prolonged survival
same,GI50,KMS28BM,1 to 10 µM
same,GI50,SU-DHL-7,0.1 to 1 µM

# — patent publication US9840500B2, “Compounds as dual inhibitors of histone methyltransferases and DNA methyltransferases” (FUNDACIÓN PARA LA INVESTIGACIÓN MÉDICA APLICADA, priority 2014, dated 2017)
